In patent publication US20230010299A1, “HETEROCYCLIC TRPML1 AGONISTS” (LIBRA THERAPEUTICS, INC., priority 2019, published 2023):

Target: T1, TRPML1 (Homo sapiens, UniProt Q9GZU1)
T1 construct: expressed in transfected cells
Test: Cellular TRPML1 assay (FLIPR TETRA, GCaMP6f calcium read-out)
Type: cell-based
Settings: HEK T-REx/GCaMP6f/TRPML1 cells; Ca2+ response over 300 s, normalized to ML-SA1 50 μM; Ca2+ free or Optimem condition not given; read-out: Ec50 (Activity of TRPML1 agonists)
Experimental: Buffers and reagents • PBS (D-PBS without calcium and magnesium; EuroClone) • Trypsin (Trypsin 0.05%, EDTA 0.02% in PBS; EuroClone) • DMSO (Sigma) • Ca^2+ free Tyrode's buffer: in-house solution (130 mM NaCl, 5 mM KCl, 1 mM MgCl2, 5 mM NaHCO3, 20 mM HEPES in water at pH 7.4; sterile filtered). • Opti-MEM (Gibco) • Agonist: ML-SA1 (Sigma); stock: 60 mM in DMSO, stored at −20° C. • Blocker: ML-SI3 (in house synthesis); stock: 20 mM in DMSO, stored at −20° C.
The final clone for the TRPML1 assay is HEK T-REx/GCaMP6f/TRPML1.
GCaMP6f is a genetically encoded calcium indicator that is stably expressed in this cell line and used as a fluorescent read-out.
Experiments are performed in 384 MTP format. Cells are seeded at 15000 cells/well either in 25 μl/well of growth medium or in 20 μl/well of Optimem+0.5% FBS without selection antibiotics. Twenty-four hours later, cells are assayed for the response to various compounds using the Ca^2+ sensitive GCaMP6f protein stably expressed in the cells as readout.
The experiment is performed in a 384-well format according to the following procedures for either Ca^2+ free or Optimem conditions: • Ca^2+ free condition (in absence of extracellular Ca^2+): • 24 h after seeding, pre-incubate the cells at room temperature for about 10′. • Then remove the culture medium and replace it with 20 μL of Ca^2+ free Tyrode's buffer. • Start the experiment at the FLIPR^TETRA by injecting 10 μL/w of 3× concentrated test compounds and controls in Ca^2+ free Tyrode's buffer. Monitor the kinetic response over a period of 300 seconds. • Final DMSO concentration: 0.5% • Optimem condition (in presence of extracellular Ca^2+): • 24 h after seeding, pre-incubate the cells at room temperature for about 10′. • Start the experiment at the FLIPR^TETRA by injecting 10 μL/w of 3× concentrated test compounds and controls in Ca^2+ free Tyrode's buffer. Monitor the kinetic response over a period of 300 seconds. • Final DMSO concentration: 0.5%
Data from FLIPR^TETRA measurements are analyzed with the Genedata Screener® software.
Stimulator controls (Col 2): injection of ML-SA1 EC100 (50 μM) in alternated wells positions
Neutral controls (Col 2): injection of 0 mM Ca^2+ free Tyrode's buffer in alternated wells positions.
Test wells (Col 3-22): test compounds dose response curve from either 100 μM with 1:2 dilution steps or from 50 μM with 1:3.16 dilution steps.

T1 sequence (Q9GZU1 whole entry): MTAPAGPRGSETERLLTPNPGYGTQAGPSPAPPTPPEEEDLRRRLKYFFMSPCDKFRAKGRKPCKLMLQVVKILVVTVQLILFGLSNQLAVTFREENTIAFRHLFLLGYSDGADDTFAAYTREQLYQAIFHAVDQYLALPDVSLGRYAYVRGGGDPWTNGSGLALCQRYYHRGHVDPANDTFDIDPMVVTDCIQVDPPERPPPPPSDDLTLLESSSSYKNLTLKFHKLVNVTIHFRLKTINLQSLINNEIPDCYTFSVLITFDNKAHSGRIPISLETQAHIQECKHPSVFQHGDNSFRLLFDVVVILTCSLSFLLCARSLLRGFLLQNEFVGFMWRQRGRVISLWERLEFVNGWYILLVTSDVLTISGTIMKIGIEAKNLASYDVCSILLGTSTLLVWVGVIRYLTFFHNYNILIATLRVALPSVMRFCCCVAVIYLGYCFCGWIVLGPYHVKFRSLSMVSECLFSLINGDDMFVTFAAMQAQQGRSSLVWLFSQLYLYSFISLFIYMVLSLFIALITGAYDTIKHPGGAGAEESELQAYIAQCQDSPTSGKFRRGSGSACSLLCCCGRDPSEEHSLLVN

CC1Cc2cc(S(=O)(=O)Nc3ccccc3N3CCN(C(=O)OC(C)(C)C)CC3)ccc2O1 (single isomer, unassigned) [Example 93, tert-butyl 4-(2-((2-methyl-2,3-dihydrobenzofuran)-5-sulfonamido)phenyl)piperazine-1-carboxylate]
EC50: 4.9 µM

O=S(=O)(Nc1ccccc1N1CCCCC1)c1sccc1C1OCCO1 [Example 11, 3-(1,3-dioxolan-2-yl)-N-[2-(piperidin-1-yl)phenyl]thiophene-2-sulfonamide]
EC50: 33.5 µM

Cc1cccc(S(=O)(=O)Nc2ccccc2N2CCCCC2)c1 [Example 23, 3-methyl-N-[2-(piperidin-1-yl)phenyl]benzene-1-sulfonamide]
EC50: 15.5 µM

COC(=O)C1CCN(c2ccccc2NS(=O)(=O)c2ccc(S(=O)(=O)N(C)C)cc2)CC1 [Example 105, methyl 1-(2-((4-(N,N-dimethylsulfamoyl)phenyl)sulfonamido)phenyl)piperidine-4-carboxylate]
EC50: 18 µM

CC(C)Oc1ccc(S(=O)(=O)Nc2ccccc2N2CCC(C(=O)OC(C)(C)C)CC2)cc1 [Example 31, tert-butyl 1-(2-((4-isopropoxyphenyl)sulfonamido)phenyl)piperidine-4-carboxylate]
EC50: 6 µM

CCc1ccc(S(=O)(=O)Nc2ccccc2N2CC3CCC2C3)s1 (stereo not shown) [Example 17, N-(2-{2-azabicyclo[2.2.1]heptan-2-yl}phenyl)-5-ethylthiophene-2-sulfonamide]
EC50: 18.2 µM

Cc1ccc(S(=O)(=O)Nc2ccccc2N2CCN(C(=O)OC(C)(C)C)CC2)cc1C [Example 51, tert-butyl 4-(2-((3,4-dimethylphenyl)sulfonamido)phenyl)piperazine-1-carboxylate]
EC50: 3 µM

Cc1cc(S(=O)(=O)Nc2ccccc2N2CCC(Oc3ccccn3)CC2)c(C)s1 [Example 97, 2,5-dimethyl-N-(2-(4-(pyridin-2-yloxy)piperidin-1-yl)phenyl)thiophene-3-sulfonamide]
EC50: 2.8 µM

CN(C)S(=O)(=O)c1ccc(S(=O)(=O)Nc2ccccc2N2CCN(C(=O)Cc3cccs3)CC2)cc1 [Example 81, N1,N1-dimethyl-N4-(2-{4-[2-(thiophen-2-yl)acetyl]piperazin-1-yl}phenyl)benzene-1,4-disulfonamide]
EC50: 11.1 µM

Cc1cc(C)cc(S(=O)(=O)Nc2ccccc2N2CCN(C(=O)OC(C)(C)C)CC2)c1 [Example 54, tert-butyl 4-(2-((3,5-dimethylphenyl)sulfonamido)phenyl)piperazine-1-carboxylate]
EC50: 20 µM

Cc1ccc(S(=O)(=O)Nc2ccccc2N2CCC(Oc3ccccn3)CC2)cn1 [Example 98, 6-methyl-N-(2-(4-(pyridin-2-yloxy)piperidin-1-yl)phenyl)pyridine-3-sulfonamide]
EC50: 3.3 µM

CN(C)S(=O)(=O)c1ccc(S(=O)(=O)Nc2ccccc2N2CCC(F)CC2)cc1 [Example 44, N1-(2-(4-fluoropiperidin-1-yl)phenyl)-N4,N4-dimethylbenzene-1,4-disulfonamide]
EC50: 2.6 µM

CN(C)S(=O)(=O)c1ccc(S(=O)(=O)Nc2ccccc2N2CC3CCC2C3)cc1 (stereo not shown) [Example 4, N4-(2-{2-azabicyclo[2.2.1]heptan-2-yl}phenyl)-N1,N1-dimethylbenzene-1,4-disulfonamide]
EC50: 8.4 µM

CC(C)Oc1ccc(S(=O)(=O)Nc2ccccc2N2CCCCC2)cc1 [Example 39, 4-isopropoxy-N-(2-(piperidin-1-yl)phenyl)benzenesulfonamide]
EC50: 54.5 µM

CN(C)S(=O)(=O)c1ccc(S(=O)(=O)NC2CCCCC2N2CCOCC2)cc1 (stereo not shown) [Example 61, N1,N1-dimethyl-N4-[2-(morpholin-4-yl)cyclohexyl]benzene-1,4-disulfonamide]
EC50: 39.5 µM

CN(C)S(=O)(=O)c1ccc(S(=O)(=O)Nc2ccccc2N2CCC(c3ccccc3)C2)cc1 (stereo not shown) [Example 37, N1,N1-dimethyl-N4-[2-(3-phenylpyrrolidin-1-yl)phenyl]benzene-1,4-disulfonamide]
EC50: 6.3 µM
